# In ChEMBL document CHEMBL2346513, “Synthesis and evaluation of methylsulfonylnitrobenzamides (MSNBAs) as inhibitors of the thyroid hormone receptor-coactivator interaction” (Bioorg Med Chem Lett, 2013):
# pEC50, pIC50: −log10 of the molar value.
# Key:
# [1] = target: T1, Thyroid hormone receptor alpha (Homo sapiens, UniProt P10827); assay: Inhibition of TRalpha-LBD (unknown origin) interaction to texas red-labeled SRC2-2 peptide by fluorescence polarization assay
# T1 sequence (P10827 whole entry): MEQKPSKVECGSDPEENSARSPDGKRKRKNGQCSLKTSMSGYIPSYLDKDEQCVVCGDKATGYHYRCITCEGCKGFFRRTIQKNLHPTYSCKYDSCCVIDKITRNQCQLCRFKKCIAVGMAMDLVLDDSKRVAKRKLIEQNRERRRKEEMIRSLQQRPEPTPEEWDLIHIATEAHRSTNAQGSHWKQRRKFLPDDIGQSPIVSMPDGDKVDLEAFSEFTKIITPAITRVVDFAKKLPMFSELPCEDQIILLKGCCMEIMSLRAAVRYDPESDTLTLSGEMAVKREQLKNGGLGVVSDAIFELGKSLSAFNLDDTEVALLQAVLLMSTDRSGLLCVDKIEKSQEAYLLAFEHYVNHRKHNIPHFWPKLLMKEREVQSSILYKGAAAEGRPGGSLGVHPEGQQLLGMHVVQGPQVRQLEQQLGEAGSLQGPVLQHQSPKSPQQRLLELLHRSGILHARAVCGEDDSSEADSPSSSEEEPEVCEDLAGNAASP
# HepG2 = assay: Cytotoxicity against human HepG2 cells assessed as ATP level after 72 hrs by CellTiter-Glo assay; assay type: cell-based; conditions: HepG2, 72 h
# [2] = target: Thyroid hormone receptor (Homo sapiens) (UniProt P10827+P10828); assay: Inhibition of thyroid hormone receptor-mediated PEPCK gene transcription in thyroid hormone treated human HepG2 cells by RT-PCR analysis; assay type: cell-based
# Vitamin D3 receptor = target: T2, Vitamin D3 receptor (Homo sapiens, UniProt P11473); assay: Inhibition of VDR (unknown origin) interaction to SRC2-3 peptide by fluorescence polarization assay
# T2 sequence (P11473 whole entry): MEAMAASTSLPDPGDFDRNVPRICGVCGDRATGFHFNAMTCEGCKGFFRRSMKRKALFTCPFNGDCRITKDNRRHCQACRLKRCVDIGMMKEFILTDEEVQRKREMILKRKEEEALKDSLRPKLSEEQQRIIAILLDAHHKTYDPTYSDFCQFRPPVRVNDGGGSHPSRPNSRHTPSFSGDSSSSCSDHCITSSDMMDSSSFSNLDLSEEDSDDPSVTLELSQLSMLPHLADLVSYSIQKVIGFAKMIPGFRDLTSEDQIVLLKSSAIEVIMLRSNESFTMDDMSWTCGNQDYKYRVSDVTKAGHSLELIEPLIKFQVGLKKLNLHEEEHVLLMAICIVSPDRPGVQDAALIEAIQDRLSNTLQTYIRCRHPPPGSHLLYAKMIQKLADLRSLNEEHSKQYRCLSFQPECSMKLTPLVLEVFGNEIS
# [3] = target: T3, Thyroid hormone receptor beta (Homo sapiens, UniProt P10828); assay: Inhibition of TRbeta-LBD (unknown origin) interaction to texas red-labeled SRC2-2 peptide by fluorescence polarization assay
# T3 sequence (P10828 whole entry): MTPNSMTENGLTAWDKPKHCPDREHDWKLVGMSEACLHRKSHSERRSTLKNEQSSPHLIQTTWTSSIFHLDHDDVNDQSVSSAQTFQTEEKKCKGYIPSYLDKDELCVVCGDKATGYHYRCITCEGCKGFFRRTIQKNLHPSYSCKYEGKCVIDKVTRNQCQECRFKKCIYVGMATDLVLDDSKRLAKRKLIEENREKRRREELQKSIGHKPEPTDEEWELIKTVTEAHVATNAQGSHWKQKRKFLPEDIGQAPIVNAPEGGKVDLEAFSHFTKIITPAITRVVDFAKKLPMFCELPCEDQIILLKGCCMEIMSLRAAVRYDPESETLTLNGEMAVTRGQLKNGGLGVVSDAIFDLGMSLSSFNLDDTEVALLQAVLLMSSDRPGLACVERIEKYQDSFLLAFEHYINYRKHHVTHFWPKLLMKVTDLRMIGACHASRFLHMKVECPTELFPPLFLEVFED
SMILES,pIC50 [1],inhibition [2],pIC50 (Vitamin D3 receptor),pIC50 [3],pEC50 (HepG2)
CS(=O)(=O)c1ccc(C(=O)NCC(=O)N(Cc2ccccc2)Cc2ccccc2)cc1[N+](=O)[O-],5.77,Dose-dependent effect,< 4.22,5.44,4.92
CS(=O)(=O)c1ccc(C(=O)NCCCC(=O)N2CCN(c3ccccc3F)CC2)cc1[N+](=O)[O-],< 4.22,–,< 4.22,< 4.22,< 4.57
CS(=O)(=O)c1ccc(C(=O)N2CCC(C(=O)N3CCC(c4ccccc4)CC3)CC2)cc1[N+](=O)[O-],< 4.22,–,< 4.22,< 4.22,< 4.57
CS(=O)(=O)c1ccc(C(=O)NCCC(=O)N2CCC(c3ccccc3)CC2)cc1[N+](=O)[O-],< 4.22,–,< 4.22,< 4.22,< 4.57
CN(CC(=O)N1CCc2ccccc2C1)C(=O)c1ccc(S(C)(=O)=O)c([N+](=O)[O-])c1,< 4.22,–,< 4.22,< 4.22,< 4.57
CS(=O)(=O)c1ccc(C(=O)N2CCC(C(=O)N3CCN(c4ccccc4)CC3)CC2)cc1[N+](=O)[O-],< 4.22,–,< 4.22,< 4.22,< 4.57
CS(=O)(=O)c1ccc(C(=O)NCCC(=O)N2CCN(c3ccccc3F)CC2)cc1[N+](=O)[O-],< 4.22,–,4.18,< 4.22,< 4.57
CN(Cc1ccccc1F)C(=O)CNC(=O)c1ccc(S(C)(=O)=O)c([N+](=O)[O-])c1,< 4.22,–,< 4.22,4.62,4.94
CN(Cc1ccccc1)C(=O)CCNC(=O)c1ccc(S(C)(=O)=O)c([N+](=O)[O-])c1,< 4.22,–,< 4.22,< 4.22,< 4.57
CS(=O)(=O)c1ccc(C(=O)NCCCC(=O)N2CCc3ccccc32)cc1[N+](=O)[O-],< 4.22,–,< 4.22,< 4.22,< 4.57
CS(=O)(=O)c1ccc(C(=O)N2CCC(C(=O)N3CCCCC3)CC2)cc1[N+](=O)[O-],< 4.22,–,< 4.22,< 4.22,< 4.57

# Further lines, with some results ahead:
pIC50 [1],inhibition [2],pIC50 (Vitamin D3 receptor),pIC50 [3],SMILES,pEC50 (HepG2)
< 4.22,–,< 4.22,< 4.22,CS(=O)(=O)c1ccc(C(=O)NCCCC(=O)N2CCC(c3ccccc3)CC2)cc1[N+](=O)[O-],< 4.57
< 4.22,–,< 4.22,< 4.22,CS(=O)(=O)c1ccc(C(=O)NCCCC(=O)N2CCc3ccccc3C2)cc1[N+](=O)[O-],< 4.57
4.48,–,< 4.22,4.42,CC1CCN(C(=O)CNC(=O)c2ccc(S(C)(=O)=O)c([N+](=O)[O-])c2)CC1,< 4.57
< 4.22,–,< 4.22,< 4.22,CN(Cc1ccccc1F)C(=O)CCNC(=O)c1ccc(S(C)(=O)=O)c([N+](=O)[O-])c1,< 4.57
4.60,–,4.36,4.51,CS(=O)(=O)c1ccc(C(=O)NCCC(=O)NC23CC4CC(CC(C4)C2)C3)cc1[N+](=O)[O-],< 4.57
< 4.22,–,< 4.22,< 4.22,CS(=O)(=O)c1ccc(C(=O)N2CCC(C(=O)N(Cc3ccccc3)c3ccccc3)CC2)cc1[N+](=O)[O-],< 4.57
< 4.22,–,4.19,< 4.22,CS(=O)(=O)c1ccc(C(=O)NCCCC(=O)N2CCN(c3ccc(F)cc3)CC2)cc1[N+](=O)[O-],< 4.57
4.43,–,< 4.22,< 4.22,CN(C(=O)CCNC(=O)c1ccc(S(C)(=O)=O)c([N+](=O)[O-])c1)c1ccccc1,< 4.57
< 4.22,–,< 4.22,< 4.22,CN(Cc1cccc(F)c1)C(=O)CN(C)C(=O)c1ccc(S(C)(=O)=O)c([N+](=O)[O-])c1,< 4.57
